Data taken from patent publication US20260138959A1, “QUINAZOLINE DERIVATIVE COMPOUND AND USE THEREOF” (VORONOI INC., priority 2021, published 2026).

How the values were obtained:
Ba/F3-c-KIT(D816V) = experiment: Proliferation inhibitory activity on Ba/F3 cell (CellTiter-Glo, 72 hours), c-KIT(D816V); type: cell-based; conditions: Mus musculus, BaF3, read-out: Ba/F3 (nM) c-KIT (D816V) (GI50 class)
Experimental: (§1) Ba/F3-TEL-PDGFRα(WT), Ba/F3-TEL-PDGFβ(WT), Ba/F3-c-KIT(D816V) (Kyinno, #KC-0138), c-KIT V560G/D816V, c-KIT D814Y were seeded at 3×10^3/100 μl/well in a clear bottom white 96-well plate. A culture solution containing compounds of 12 concentrations (0.00001-2 mM) serially diluted in 3 folds and the DMSO control group was added at 0.5 μl/well each to a final concentration of 0.00005-10 μM, and then incubated in a CO2 incubator at 37° C. for 72 hours. After 72 hours, the plate treated with the compound was taken out, CellTiter-Glo® Assay (Promega) solution was treated with 100 μl/well, followed by mixing well. After mixing well for about 10 minutes at room temperature, […] was measured using a microplate reader. The data were presented as percentages in proportion to treated cells based on the vehicle, GI50 (nM) values were calculated using GraphPad Prism 8.3.0 (GraphPad software Inc., San Diego).
(§2) The inhibitory activities of Ba/F3 expressing PDGFR-α, PDGFR-β, c-KIT(D816V), c-KIT V560G/D816V, and c-KIT D814Y measured as described above were measured and shown in Table 7 below (A: GI50≤200 nM; B: 200 nM<GI50≤500 nM; C: GI50>500 nM).

c-KIT V560G/D816V = experiment: Proliferation inhibitory activity on Ba/F3 cell (CellTiter-Glo, 72 hours), c-KIT V560G/D816V; type: cell-based; conditions: Mus musculus, BaF3, c-KIT V560G/D816V cells, read-out: Cell (nM) c-KIT V560G/D816V (GI50 class)
Experimental: as §1, §2

Compound | GI50 (Ba/F3-c-KIT(D816V)) [nM] | GI50 (c-KIT V560G/D816V) [nM]
COc1cc2c(-c3ccc(NC(=O)Cc4ccc(C(F)(F)F)cc4)cc3)ncnc2cc1OC[C@@H]1CCN(C(=O)OC(C)(C)C)C1 [Example 35, tert-butyl (R)-3-(((6-methoxy-4-(4-(2-(4-(trifluoromethyl)phenyl)acetamido)phenyl)quinazolin-7-yl)oxy)methyl)pyrrolidin-1-carboxylate] | ≤ 200 | > 500
COc1cc2ncnc(-c3ccc(NC(=O)Cc4ccc(C(F)(F)F)cc4)cc3)c2cc1OCCCN1CCCC1 [Example 160, N-(4-(7-methoxy-6-(3-(pyrrolidin-1-yl)propoxy)quinazolin-4-yl)phenyl)-2-(4-(trifluoromethyl)phenyl)acetamide] | ≤ 200 | ≤ 200
COc1ccc(CN2CC(Oc3cc4ncnc(-c5ccc(NC(=O)Cc6ccc(C(F)(F)F)cc6)cc5)c4cc3OC)C2)cc1 [Example 27, N-(4-(6-methoxy-7-((1-(4-methoxybenzyl)azetidin-3-yl)oxy)quinazolin-4-yl)phenyl)-2-(4-(trifluoromethyl)phenyl)acetamide] | ≤ 200 | > 500
COc1cc2ncnc(-c3ccc(NC(=O)Cc4ccc(C(F)(F)F)cc4)cc3)c2cc1O[C@H]1CCCO1 [Example 156, (S)-N-(4-(7-methoxy-6-((tetrahydrofuran-2-yl)oxy)quinazolin-4-yl)phenyl)-2-(4-(trifluoromethyl)phenyl)acetamide] | ≤ 200 | 200 to 500
COc1cc2c(-c3ccc(NC(=O)Cc4cccc(C(F)(F)F)c4)cc3)ncnc2cc1OCC1CCNCC1 [Example 60, N-(4-(6-methoxy-7-(piperidin-4-ylmethoxy)quinazolin-4-yl)phenyl)-2-(3-(trifluoromethyl)phenyl)acetamide] | ≤ 200 | 200 to 500
COc1cc2c(-c3ccc(NC(=O)Cc4ccc(C(F)(F)F)cc4)cc3)ncnc2cc1OCCCN1CCN(C(C)=O)CC1 [Example 141, N-(4-(7-(3-(4-acetylpiperazin-1-yl)propoxy)-6-methoxyquinazolin-4-yl)phenyl)-2-(4-(trifluoromethyl)phenyl)acetamide] | ≤ 200 | ≤ 200
COc1cc2c(-c3ccc(NC(=O)Cc4ccc(C(F)(F)F)cc4)cc3)ncnc2cc1OCCCNC1CC1 [Example 25, N-(4-(7-(3-(cyclopropylamino)propoxy)-6-methoxyquinazolin-4-yl)phenyl)-2-(4-(trifluoromethyl)phenyl)acetamide] | ≤ 200 | ≤ 200
COc1cc2ncnc(-c3ccc(NC(=O)Cc4ccc(C(F)(F)F)cc4)cc3)c2cc1OC1CN(C(=O)OC(C)(C)C)C1 [Example 135, tert-butyl 3-((7-methoxy-4-(4-(2-(4-(trifluoromethyl)phenyl)acetamido)phenyl)quinazolin-6-yl)oxy)azetidin-1-carboxylate] | 200 to 500 | –
COc1cc2c(-c3ccc(NC(=O)Cc4ccc(C(F)(F)F)cc4)cc3)ncnc2cc1OC1CNC1 [Example 24, N-(4-(7-(azetidine-3-yloxy)-6-methoxyquinazolin-4-yl)phenyl)-2-(4-(trifluoromethyl)phenyl)acetamide] | ≤ 200 | > 500
COc1cc2c(-c3ccc(NC(=O)Cc4ccc(C(F)(F)F)cc4)cc3)ncnc2cc1OCC1CCCN(C(=O)OC(C)(C)C)C1 (centres unmarked) [Example 14, tert-butyl 3-(((6-methoxy-4-(4-(2-(4-(trifluoromethyl)phenyl)acetamido)phenyl)quinazolin-7-yl)oxy)methyl)piperidin-1-carboxylate] | > 500 | –
COc1cc2c(-c3ccc(NC(=O)Cn4cc(C(C)C)nn4)cc3)ncnc2cc1OCCCN1CCN(C)CC1 [Example 67, 2-(4-isopropyl-1H-1,2,3-triazole-1-yl)-N-(4-(6-methoxy-7-(3-(4-methylpiperazin-1-yl)propoxy)quinazolin-4-yl)phenyl)acetamide] | ≤ 200 | –
COc1cc2c(-c3ccc(NC(=O)Cc4ccc(C(F)(F)F)cc4)cc3)ncnc2cc1OCC1CCCNC1 (centres unmarked) [Example 16, N-(4-(6-methoxy-7-(piperidin-3-ylmethoxy)quinazolin-4-yl)phenyl)-2-(4-(trifluoromethyl)phenyl)acetamide] | ≤ 200 | –
CCN1CC2(C1)CN(CCCOc1cc3ncnc(-c4ccc(NC(=O)Cc5ccc(C(F)(F)F)cc5)cc4)c3cc1OC)C2 [Example 21, N-(4-(7-(3-(6-ethyl-2,6-diazaspiro[3.3]heptane-2-yl)propoxy)-6-methoxyquinazolin-4-yl)phenyl)-2-(4-(trifluoromethyl)phenyl)acetamide] | ≤ 200 | –
COc1cc2c(-c3ccc(NC(=O)Cn4cc(C(C)(C)C)nn4)cc3)ncnc2cc1OCC1CCNCC1 [Example 62, 2-(4-(tert-butyl)-1H-1,2,3-triazole-1-yl)-N-(4-(6-methoxy-7-(piperidin-4-ylmethoxy)quinazolin-4-yl)phenyl)acetamide] | > 500 | –
COc1cc2c(-c3ccc(NC(=O)Cc4ccc(C(F)(F)F)cc4)cc3)ncnc2cc1OCCCN1CC2(C1)CN(C(=O)OC(C)(C)C)C2 [Example 19] | ≤ 200 | –
COc1cc2ncnc(-c3ccc(NC(=O)Cc4ccc(C(F)(F)F)cc4)cc3)c2cc1OCCCN1CCN(C(C)=O)CC1 [Example 128, N-(4-(6-(3-(4-acetylpiperazin-1-yl)propoxy)-7-methoxyquinazolin-4-yl)phenyl)-2-(4-(trifluoromethyl)phenyl)acetamide] | ≤ 200 | –
COc1cc2c(-c3ccc(NC(=O)Cc4ccc(C(F)(F)F)cc4)cc3)ncnc2cc1OCCCN1CC2(CNC2)C1 [Example 20, N-(4-(7-(3-(2,6-diazaspiro[3.3]heptane-2-yl)propoxy)-6-methoxyquinazolin-4-yl)phenyl)-2-(4-(trifluoromethyl)phenyl)acetamide] | > 500 | –
COc1cc2ncnc(-c3ccc(NC(=O)Cc4ccc(C(F)(F)F)cc4)cc3)c2cc1OCC1CCNCC1 [Example 146, N-(4-(7-methoxy-6-(piperidin-4-ylmethoxy)quinazolin-4-yl)phenyl)-2-(4-(trifluoromethyl)phenyl)acetamide] | > 500 | –
COc1cc2c(-c3ccc(NC(=O)Cc4ccc(C(F)(F)F)c(F)c4)cc3)ncnc2cc1OCC1CCNCC1 [Example 79, 2-(3-fluoro-4-(trifluoromethyl)phenyl)-N-(4-(6-methoxy-7-(piperidin-4-ylmethoxy)quinazolin-4-yl)phenyl)acetamide] | ≤ 200 | –
COc1cc2ncnc(-c3ccc(NC(=O)Cc4ccc(C(F)(F)F)cc4)cc3)c2cc1OCCCNc1cnn(C)c1 [Example 155, N-(4-(7-methoxy-6-(3-((1-methyl-1H-pyrazol-4-yl)amino)propoxy)quinazolin-4-yl)phenyl)-2-(4-(trifluoromethyl)phenyl)acetamide] | ≤ 200 | –
COc1cc2ncnc(-c3ccc(NC(=O)Cc4ccc(C(F)(F)F)cc4)cc3)c2cc1OCCCNC1CC1 [Example 154, N-(4-(6-(3-(cyclopropylamino)propoxy)-7-methoxyquinazolin-4-yl)phenyl)-2-(4-(trifluoromethyl)phenyl)acetamide] | ≤ 200 | –
COc1cc2ncnc(-c3ccc(NC(=O)Cc4ccc(C(F)(F)F)cc4)cc3)c2cc1OC1CCN(C(=O)OC(C)(C)C)C1 (centres unmarked) [Example 136, tert-butyl 3-((7-methoxy-4-(4-(2-(4-(trifluoromethyl)phenyl)acetamido)phenyl)quinazolin-6-yl)oxy)pyrrolidin-1-carboxylate] | ≤ 200 | –
COc1cc2c(-c3ccc(NC(=O)Cn4cc(C(C)C)nn4)cc3)ncnc2cc1OCC1CCNCC1 [Example 61, 2-(4-isopropyl-1H-1,2,3-triazole-1-yl)-N-(4-(6-methoxy-7-(piperidin-4-ylmethoxy)quinazolin-4-yl)phenyl)acetamide] | > 500 | –
CCN1CCC(COc2cc3ncnc(-c4ccc(NC(=O)Cn5cc(C(C)(C)C)nn5)cc4)c3cc2OC)CC1 [Example 66, 2-(4-(tert-butyl)-1H-1,2,3-triazole-1-yl)-N-(4-(7-((1-ethylpiperidin-4-yl)methoxy)-6-methoxyquinazolin-4-yl)phenyl)acetamide] | ≤ 200 | –
COc1cc2c(-c3ccc(NC(=O)Cc4ccc(C(F)(F)F)cc4)cc3)ncnc2cc1OC[C@@H]1CCNC1 [Example 38, (R)-N-(4-(6-methoxy-7-(pyrrolidin-3-ylmethoxy)quinazolin-4-yl)phenyl)-2-(4-(trifluoromethyl)phenyl)acetamide] | ≤ 200 | –
COc1cc2c(-c3ccc(NC(=O)CC4CCNCC4)cc3)ncnc2cc1OCCCN1CCN(C)CC1 [Example 86, N-(4-(6-methoxy-7-(3-(4-methylpiperazin-1-yl)propoxy)quinazolin-4-yl)phenyl)-2-(piperidin-4-yl)acetamide] | > 500 | –
COc1cc2c(-c3ccc(NC(=O)Cc4ccc(C(F)(F)F)cc4)cc3)ncnc2cc1OCCCNc1cnn(C)c1 [Example 26, N-(4-(6-methoxy-7-(3-((1-methyl-1H-pyrazol-4-yl)amino)propoxy)quinazolin-4-yl)phenyl)-2-(4-(trifluoromethyl)phenyl)acetamide] | ≤ 200 | –
